Target: T1, dihydropyrimidine dehydrogenase (DPD) (Homo sapiens, UniProt Q12882)
T1 construct: from tissue; host or cells: donor whole blood (K2EDTA), plasma separated from it, and WBC/buffy coat
T1 sequence (Q12882 4-1025): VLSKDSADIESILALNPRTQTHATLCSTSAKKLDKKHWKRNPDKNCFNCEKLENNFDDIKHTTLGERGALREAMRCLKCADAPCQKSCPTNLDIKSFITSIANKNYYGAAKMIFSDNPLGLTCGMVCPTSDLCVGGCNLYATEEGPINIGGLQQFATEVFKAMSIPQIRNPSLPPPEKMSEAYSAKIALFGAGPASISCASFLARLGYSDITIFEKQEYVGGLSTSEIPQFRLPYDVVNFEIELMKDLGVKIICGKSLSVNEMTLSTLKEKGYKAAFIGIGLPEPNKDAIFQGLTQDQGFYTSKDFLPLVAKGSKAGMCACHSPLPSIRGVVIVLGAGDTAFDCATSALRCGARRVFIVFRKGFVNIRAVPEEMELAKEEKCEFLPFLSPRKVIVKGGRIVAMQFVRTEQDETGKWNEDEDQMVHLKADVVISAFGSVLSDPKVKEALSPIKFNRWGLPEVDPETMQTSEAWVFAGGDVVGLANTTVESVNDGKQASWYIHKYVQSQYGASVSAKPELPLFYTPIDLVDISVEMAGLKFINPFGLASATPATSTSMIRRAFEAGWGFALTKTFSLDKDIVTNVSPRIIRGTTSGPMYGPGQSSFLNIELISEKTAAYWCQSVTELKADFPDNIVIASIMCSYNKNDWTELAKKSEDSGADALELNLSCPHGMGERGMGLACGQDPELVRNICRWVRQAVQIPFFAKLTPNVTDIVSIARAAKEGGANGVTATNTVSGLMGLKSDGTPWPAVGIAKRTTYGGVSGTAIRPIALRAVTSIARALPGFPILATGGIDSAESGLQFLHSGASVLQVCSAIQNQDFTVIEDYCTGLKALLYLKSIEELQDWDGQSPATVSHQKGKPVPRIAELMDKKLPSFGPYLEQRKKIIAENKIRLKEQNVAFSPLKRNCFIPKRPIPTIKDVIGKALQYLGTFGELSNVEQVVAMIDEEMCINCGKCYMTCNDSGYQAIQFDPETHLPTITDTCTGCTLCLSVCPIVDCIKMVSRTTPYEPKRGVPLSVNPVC
Experiment: Extended incubation of gimeracil in blood before plasma separation
Format: biochemical
Conditions: gimeracil 1200 ng/mL; for 5-FU Concentration 24 hrs after plasma separation / 5-FU Concentration Upon plasma separation: 500 ng/mL 5-FU
Experimental: In the following illustrative examples, 5-FU was measured using an antibody-based agglutination assay on the Olympus AU680 Analyzer using an antibody disclosed in U.S. Pat. No. 7,205,116. Specifically, the concentration of 5-FU in a sample is determined based on the absorbance of a sample, which is determined by the amount of aggregation by the nanoparticles. The system requires two reagents, which when mixed in the absence of free 5-FU will form large aggregates of nanoparticles and scatter light to result in a higher absorption value. In the presence of free 5-FU, the agglutination reaction becomes somewhat inhibited and scattering of light is less, causing a lower absorption value. The instrument is calibrated twice monthly, and a curve is generated (Absorbance vs. 5-FU concentration). Absorbance values from individual samples are compared against this curve to determine concentration.
Generally in the agglutination assay, 95 μl of a buffer containing 5-FU-labeled amino-dextran is pipetted to a cuvette, followed by 7 μL of a filtered plasma sample. The sample and reagent are mixed and then incubated for about 3.5 minutes. 95 μl of 5-FU antibody-conjugated nanoparticles is pipetted into the cuvette and mixed. The complete reaction incubates for about 6.2 minutes. A series of 27 measurements at 600 nm are taken at regular intervals by the AU680 analyzer throughout this process, and 5-FU concentration is calculated using the measurements from two specific time points.
Six tubes of blood (spray-on K2EDTA tubes, 6 mL) was drawn from each of six donors, and the blood tubes were inverted several times to mix the anti-coagulant into the blood. Blood tubes were pooled and kept separate by donor. An aliquot of each donor's blood was transferred to a new tube, and a calculated volume of 5-FU stock (at 200 ng/μL) was added to each blood sample to achieve a final concentration of 500 ng/mL 5-FU. Spiked blood samples were aliquotted to clean tubes, 4 mL of blood to each of 8 tubes per donor. Gimeracil in methanol solvent was added to the blood tubes to reach a final concentration of 1200 ng/mL. For negative control, methanol only is added to the control blood tube. Blood tubes sat at room temperature for 45 minutes, 24 hours, or 48 hours before plasma separation. At the appropriate times, the blood tubes were centrifuged at 2000×g for 10 minutes at room temperature for plasma separation. The plasma was aspirated immediately after centrifugation and dispensed into clean cryovials. For 5-FU assays, the plasma samples were run under standard conditions for the Olympus AU680 analyzer, as described above (200 μL, spin for 15 minutes at 12,500 rpm). Measurements of 5-FU concentration were taken after plasma collection and for 2 days following the initial reading. Plasma was stored at room temperature during the interval.

Oc1cc(O)c(Cl)cn1 [Gimeracil, 5-chloro-2,4-dihydroxypyridine]
5-FU Concentration 24 hrs after plasma separation (45 minute incubation in blood): 538.1 ng/mL | 5-FU Concentration Upon plasma separation (45 minute incubation in blood): 533.3 ng/mL | 5-FU Concentration 24 hrs after plasma separation (24 hours incubation in blood): 551.9 ng/mL | 5-FU Concentration Upon plasma separation (24 hours incubation in blood): 551.8 ng/mL | 5-FU Concentration 24 hrs after plasma separation (48 hours incubation in blood): 578.4 ng/mL | 5-FU Concentration Upon plasma separation (48 hours incubation in blood): 581.3 ng/mL | effect of keeping gimeracil in blood without plasma separation for a longer time (24 or 48 hours in blood (FIG. 5)): may cause 5-FU concentration to artificially increase

Source: patent US8440442B2, “Method of assaying 5-FU” (Myriad Genetics, Inc, priority 2009, dated 2013)
